Our source for the IC50 values is US20240174634A1, “Aldehyde Dehydrogenase Inhibitors and Their Therapeutic Use” (priority 2020, published 2024).

The assay addresses T1, ALDH1A3 (Homo sapiens, UniProt P47895).
T1 sequence (P47895 1-512): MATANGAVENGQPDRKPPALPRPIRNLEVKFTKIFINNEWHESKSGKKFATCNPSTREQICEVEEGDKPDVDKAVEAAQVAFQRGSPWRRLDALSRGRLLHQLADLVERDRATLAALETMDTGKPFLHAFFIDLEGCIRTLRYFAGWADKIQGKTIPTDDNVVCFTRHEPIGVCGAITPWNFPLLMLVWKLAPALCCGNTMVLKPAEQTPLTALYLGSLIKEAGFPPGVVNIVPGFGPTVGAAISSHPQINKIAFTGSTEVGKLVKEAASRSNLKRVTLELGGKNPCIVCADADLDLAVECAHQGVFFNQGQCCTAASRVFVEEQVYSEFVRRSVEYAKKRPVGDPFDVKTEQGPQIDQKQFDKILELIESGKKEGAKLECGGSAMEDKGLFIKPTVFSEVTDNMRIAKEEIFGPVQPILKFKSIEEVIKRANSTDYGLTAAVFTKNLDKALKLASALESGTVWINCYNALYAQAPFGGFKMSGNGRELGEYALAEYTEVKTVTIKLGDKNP
The assay can be described thus: Primary biochemical assay, NAD(P)H-Glo Detection System. To be noted: 30 min pre-incubation, propionaldehyde and NAD at Km. More on the design: His-tag; made in house; host or cells: E. coli Rosetta (DE3). The method in brief: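 Recombinant full-length His-tagged human enzymes expressed in E. coli were pre-incubated 30 min at room temperature with compound (10-point, 3-fold series; top 20 μM for ALDH1A3, 250 μM for ALDH1A1/1A2). Propionaldehyde and NAD were then added at Km; NADH was read by NAD(P)H-Glo luminescence. Buffer: Tris (pH 7.6 for 1A1/1A2, 9.0 for 1A3), 1 mM TCEP, 0.01% Tween-20.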
A word on the IC50: it is the concentration that inhibits the measured activity by half. A high value points to weaker potency. `Cn1cc(C2CCCN2CCOc2ccc3c(c2)SCC(=O)N3)cn1` (centres unmarked) [ALDHI-2026, 7-[2-[2-(1-methylpyrazol-4-yl)pyrrolidin-1-yl]ethoxy]-4H-1,4-benzothiazin-3-one] returned a concentration for half-maximal inhibition (IC50) of 100 to 1000 nM.
`O=C1CSc2cc(OCCN3CCCC3c3ccccn3)ccc2N1` (centres unmarked) [ALDHI-2027, 7-[2-[2-(2-pyridyl)pyrrolidin-1-yl]ethoxy]-4H-1,4-benzothiazin-3-one] gave a half-maximal inhibitory concentration (IC50) of 100 to 1000 nM.
Take `O=C1CSc2cc(OCCN3CCCC3c3cccnc3)ccc2N1` (centres unmarked) [ALDHI-2028, 7-[2-[2-(3-pyridyl)pyrrolidin-1-yl]ethoxy]-4H-1,4-benzothiazin-3-one]: the IC50 was less than 100 nM.
In the case of `O=C1CSc2cc(OCCN3CCCC3c3ccncc3)ccc2N1` (centres unmarked) [ALDHI-2029, 7-[2-[2-(4-pyridyl)pyrrolidin-1-yl]ethoxy]-4H-1,4-benzothiazin-3-one] it was 100 to 1000 nM; in that of `Cc1ccc(C2CCCN2CCOc2ccc3c(c2)CCC(=O)N3)cn1` (centres unmarked) [ALDHI-2030, 6-[2-[2-(6-methyl-3-pyridyl)pyrrolidin-1-yl]ethoxy]-3,4-dihydro-1H-quinolin-2-one], 100 to 1000 nM.
The compound `O=C1CCc2cc(OCCN3CCOCC3c3cccc(F)c3)ccc2N1` (centres unmarked) [ALDHI-2031, 6-[2-[3-(3-fluorophenyl)morpholin-4-yl]ethoxy]-3,4-dihydro-1H-quinolin-2-one] came in with an IC50 of less than 100 nM.
In the case of `O=C1CCc2cc(OCCN3CCCC3c3cc(F)cc(F)c3)ccc2N1` (centres unmarked) [ALDHI-2032, 6-[2-[2-(3,5-difluorophenyl)pyrrolidin-1-yl]ethoxy]-3,4-dihydro-1H-quinolin-2-one] it was less than 100 nM.
In the case of `Cc1nc(C2CCCN2CCOc2ccc3c(c2)CCC(=O)N3)cs1` (centres unmarked) [ALDHI-2033, 6-[2-[2-(2-methylthiazol-4-yl)pyrrolidin-1-yl]ethoxy]-3,4-dihydro-1H-quinolin-2-one] it was 100 to 1000 nM; in that of `COc1cccc(C2CCCN2CCOc2ccc3c(c2)CCC(=O)N3)c1` (centres unmarked) [ALDHI-2034, 6-[2-[2-(3-methoxyphenyl)pyrrolidin-1-yl]ethoxy]-3,4-dihydro-1H-quinolin-2-one], 100 to 1000 nM; in that of `CC1(c2cccc(F)c2)CCCN1CCOc1ccc2c(c1)CCC(=O)N2` (centres unmarked) [ALDHI-2037, 6-[2-[2-(3-fluorophenyl)-2-methyl-pyrrolidin-1-yl]ethoxy]-3,4-dihydro-1H-quinolin-2-one], less than 100 nM.
`O=C1CCc2cc(OCCN3CCCCC3c3cccc(F)c3)ccc2N1` (centres unmarked) [ALDHI-2038, 6-[2-[2-(3-fluorophenyl)-1-piperidyl]ethoxy]-3,4-dihydro-1H-quinolin-2-one] yielded a concentration for half-maximal inhibition (IC50) of less than 100 nM.
In the case of `O=C1CCc2cc(OCCN3CCCC3c3ccc(F)c(F)c3)ccc2N1` (centres unmarked) [ALDHI-2039, 6-[2-[2-(3,4-difluorophenyl)pyrrolidin-1-yl]ethoxy]-3,4-dihydro-1H-quinolin-2-one] it was less than 100 nM.
`CC1(c2ccccc2)COCCN1CCOc1ccc2c(c1)CCC(=O)N2` (centres unmarked) [ALDHI-2040, 6-[2-(3-methyl-3-phenyl-morpholin-4-yl)ethoxy]-3,4-dihydro-1H-quinolin-2-one] registered a half-inhibitory concentration (IC50) of 100 to 1000 nM.
`O=C1CCc2cc(OCCn3ccnc3-c3ccccc3)ccc2N1` [ALDHI-2041, 6-[2-(2-phenylimidazol-1-yl)ethoxy]-3,4-dihydro-1H-quinolin-2-one]: the IC50 is 100 to 1000 nM.
For `CC1(C)Oc2cc(OCCN3CCCC3c3cccc(F)c3)ccc2NC1=O` (centres unmarked) [ALDHI-2043, 7-[2-[2-(3-fluorophenyl)pyrrolidin-1-yl]ethoxy]-2,2-dimethyl-4H-1,4-benzoxazin-3-one] the value was 100 to 1000 nM.
With `CC1Oc2cc(OCCN3CCCC3c3cccc(F)c3)ccc2NC1=O` (centres unmarked) [ALDHI-2044, 7-[2-[2-(3-fluorophenyl)pyrrolidin-1-yl]ethoxy]-2-methyl-4H-1,4-benzoxazin-3-one], the IC50 was less than 100 nM.
Take `CCC1Oc2cc(OCCN3CCCC3c3cccc(F)c3)ccc2NC1=O` (centres unmarked) [ALDHI-2045, 2-ethyl-7-[2-[2-(3-fluorophenyl)pyrrolidin-1-yl]ethoxy]-4H-1,4-benzoxazin-3-one]: the half-maximal inhibitory concentration (IC50) was less than 100 nM.
For `CC1Cc2cc(OCCN3CCCC3c3cccc(F)c3)ccc2NC1=O` (centres unmarked) [ALDHI-2048, 6-[2-[2-(3-fluorophenyl)pyrrolidin-1-yl]ethoxy]-3-methyl-3,4-dihydro-1H-quinolin-2-one] the value was less than 100 nM.
As to `O=C1CCc2cc(OCCN3CCCC3c3cccc(F)c3)c(F)cc2N1` (centres unmarked) [ALDHI-2050, 7-fluoro-6-[2-[2-(3-fluorophenyl)pyrrolidin-1-yl]ethoxy]-3,4-dihydro-1H-quinolin-2-one], the IC50 is less than 100 nM.
In the case of `O=C1CCc2cc(OCCN3C(=O)CCC3c3ccccc3)ccc2N1` (centres unmarked) [ALDHI-2051, 6-[2-(2-oxo-5-phenyl-pyrrolidin-1-yl)ethoxy]-3,4-dihydro-1H-quinolin-2-one] it was less than 100 nM; in that of `O=C1CCc2cc(OCCN3CC(F)CC3c3cccc(F)c3)ccc2N1` (centres unmarked) [ALDHI-2052, 6-[2-[4-fluoro-2-(3-fluorophenyl)pyrrolidin-1-yl]ethoxy]-3,4-dihydro-1H-quinolin-2-one], less than 100 nM; in that of `O=C1CCc2cc(OCCN3CC(F)(F)CC3c3cccc(F)c3)ccc2N1` (centres unmarked) [ALDHI-2053, 6-[2-[4,4-difluoro-2-(3-fluorophenyl)pyrrolidin-1-yl]ethoxy]-3,4-dihydro-1H-quinolin-2-one], less than 100 nM.
For `CN(CCOc1ccc2c(c1)CCC(=O)N2)Cc1cccc(F)c1` [ALDHI-3001, 6-[2-[(3-fluorophenyl)methyl-methyl-amino]ethoxy]-3,4-dihydro-1H-quinolin-2-one], the IC50 lay within 100 to 1000 nM.
For `O=C1CCc2cc(OCCN(CCO)Cc3cccc(F)c3)ccc2N1` [ALDHI-3002, 6-[2-[(3-fluorophenyl)methyl-(2-hydroxyethyl)amino]ethoxy]-3,4-dihydro-1H-quinolin-2-one], the concentration for half-maximal inhibition (IC50) was less than 100 nM.
On to `CN(CCOc1ccc2c(c1)CCC(=O)N2)C(CO)c1cccc(F)c1` (centres unmarked) [ALDHI-3003, 6-[2-[[1-(3-fluorophenyl)-2-hydroxy-ethyl]-methyl-amino]ethoxy]-3,4-dihydro-1H-quinolin-2-one], for which the half-maximal inhibitory concentration (IC50) fell in the range of 100 to 1000 nM.
`CCN(CC)CCN(CCOc1ccc2c(c1)CCC(=O)N2)Cc1ccccc1` [ALDHI-3004, 6-[2-[benzyl-[2-(diethylamino)ethyl]amino]ethoxy]-3,4-dihydro-1H-quinolin-2-one]: the concentration for half-maximal inhibition (IC50) was in the range of 100 to 1000 nM.
In the case of `O=C1CCc2cc(OCCN(CCO)Cc3cccnc3)ccc2N1` [ALDHI-3005, 6-[2-[2-hydroxyethyl(3-pyridylmethyl)amino]ethoxy]-3,4-dihydro-1H-quinolin-2-one] it was less than 100 nM; in that of `C[C@H](c1ccccc1)N(CCO)CCOc1ccc2c(c1)CCC(=O)N2` [ALDHI-3006, 6-[2-[2-hydroxyethyl-[(1R)-1-phenylethyl]amino]ethoxy]-3,4-dihydro-1H-quinolin-2-one], 100 to 1000 nM.
`C[C@@H](c1ccccc1)N(CCO)CCOc1ccc2c(c1)CCC(=O)N2` [ALDHI-3007, 6-[2-[2-hydroxyethyl-[(1S)-1-phenylethyl]amino]ethoxy]-3,4-dihydro-1H-quinolin-2-one] registered a half-maximal inhibitory concentration (IC50) of 100 to 1000 nM.
For `CN(CCOc1ccc2c(c1)CCC(=O)N2)C(=O)c1cccc(F)c1` [ALDHI-3008, 3-fluoro-N-methyl-N-[2-[(2-oxo-3,4-dihydro-1H-quinolin-6-yl)oxy]ethyl]benzamide] the value was 100 to 1000 nM.
For `CN(CCOc1ccc2c(c1)CCC(=O)N2)Cc1cccnc1` [ALDHI-3010, 6-[2-[methyl(3-pyridylmethyl)amino]ethoxy]-3,4-dihydro-1H-quinolin-2-one] the value was 100 to 1000 nM; for `CN(CCOc1ccc2c(c1)CCC(=O)N2)C(=O)c1cccnc1` [ALDHI-3013, N-methyl-N-[2-[(2-oxo-3,4-dihydro-1H-quinolin-6-yl)oxy]ethyl]pyridine-3-carboxamide], 100 to 1000 nM.
